ChEMBL document CHEMBL1135203, “Benzodiazepine inhibitors of the MMPs and TACE” (Bioorg Med Chem Lett, 2002)
pIC50: −log10 of the molar value. The source made the active and inactive calls. No cut-off for these calls is given here.

What was measured:
THP-1 = test: Compound was tested for its ability to inhibit TNF-alpha in a cellular assay using THP-1 cells at 3 uM; assay type: functional; settings: Homo sapiens
Collagenase 3 = Collagenase 3 (Homo sapiens, UniProt P45452); test: Concentration required in vitro to inhibit Matrix metalloprotease-13
[1] = molecular target: Matrix metalloproteinase-9 (Homo sapiens, UniProt P14780); test: Concentration required in vitro to inhibit Matrix metalloprotease-9
[2] = molecular target: Disintegrin and metalloproteinase domain-containing protein 17 (Homo sapiens, UniProt P78536); test: Concentration required in vitro to inhibit TNF-alpha converting enzyme (TACE)
Interstitial collagenase = molecular target: T1, Interstitial collagenase (Homo sapiens, UniProt P03956); test: Concentration required in vitro to inhibit Matrix metalloprotease-1
T1 sequence (P03956 whole entry): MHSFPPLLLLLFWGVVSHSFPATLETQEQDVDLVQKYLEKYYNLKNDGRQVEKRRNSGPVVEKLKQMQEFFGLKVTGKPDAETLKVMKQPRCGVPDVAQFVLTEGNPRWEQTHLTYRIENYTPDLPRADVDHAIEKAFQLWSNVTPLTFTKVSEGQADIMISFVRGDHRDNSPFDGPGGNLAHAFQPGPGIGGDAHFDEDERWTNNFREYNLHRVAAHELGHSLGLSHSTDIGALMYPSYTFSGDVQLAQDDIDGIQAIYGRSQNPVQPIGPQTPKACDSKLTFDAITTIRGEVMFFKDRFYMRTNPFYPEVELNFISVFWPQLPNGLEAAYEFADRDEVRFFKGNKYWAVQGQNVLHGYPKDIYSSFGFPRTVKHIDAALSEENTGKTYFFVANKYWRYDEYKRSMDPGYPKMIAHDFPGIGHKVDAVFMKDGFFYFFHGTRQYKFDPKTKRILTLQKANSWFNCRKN

Bos taurus [3] = organism: Bos taurus; test: Inhibition of cartilage degradation by the compound was detected using bovine cartilage explant model at 1 uM; assay type: functional, Cartilage tissue
Rattus norvegicus [4] = test: Dialysis activity is detected at a dose of 50 mpk after 2 hr of ip administration; assay type: functional; parameters: unit not given here
Rattus norvegicus [5] = test: Dialysis activity is detected at a dose of 50 mpk after 1 hr of po administration; assay type: functional; parameters: unit not given here
Rattus norvegicus [6] = organism: Rattus norvegicus; test: Dialysis activity is detected at a dose of 50 mpk; assay type: functional
Bos taurus [7] = organism: Bos taurus; test: Compound was tested for inhibition of cartilage degradation using bovine cartilage explant model; assay type: functional, Cartilage tissue
Rattus norvegicus [8] = organism: Rattus norvegicus; test: Dialysis activity is detected at a dose of 50 mpk; IA denotes inactive; assay type: functional, organism-based
Rattus norvegicus [9] = test: Dialysis activity is detected at a dose of 50 mpk after 1 hr of ip administration; assay type: functional

Chain of Matrix metalloproteinase-9 (P14780 whole entry, the tested form may be a part): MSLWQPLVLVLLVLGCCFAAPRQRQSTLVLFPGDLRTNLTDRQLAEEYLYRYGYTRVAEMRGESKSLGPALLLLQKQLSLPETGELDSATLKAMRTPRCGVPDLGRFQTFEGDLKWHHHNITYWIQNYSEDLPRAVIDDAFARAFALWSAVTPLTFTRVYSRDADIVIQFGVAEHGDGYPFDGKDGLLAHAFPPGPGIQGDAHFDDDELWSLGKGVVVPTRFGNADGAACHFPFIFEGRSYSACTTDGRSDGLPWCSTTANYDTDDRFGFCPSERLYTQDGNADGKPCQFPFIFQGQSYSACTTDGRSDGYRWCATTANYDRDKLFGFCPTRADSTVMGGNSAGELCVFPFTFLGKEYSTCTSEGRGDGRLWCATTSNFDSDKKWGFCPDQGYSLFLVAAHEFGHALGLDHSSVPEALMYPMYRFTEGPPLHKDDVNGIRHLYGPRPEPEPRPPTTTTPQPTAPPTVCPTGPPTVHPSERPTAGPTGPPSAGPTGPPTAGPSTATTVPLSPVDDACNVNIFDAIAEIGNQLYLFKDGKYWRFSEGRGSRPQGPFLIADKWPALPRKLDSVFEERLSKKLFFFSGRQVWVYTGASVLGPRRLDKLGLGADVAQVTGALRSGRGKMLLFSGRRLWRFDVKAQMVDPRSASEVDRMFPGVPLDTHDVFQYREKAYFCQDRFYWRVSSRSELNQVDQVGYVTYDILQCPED
Chain of Disintegrin and metalloproteinase domain-containing protein 17 (P78536 whole entry, the tested form may be a part): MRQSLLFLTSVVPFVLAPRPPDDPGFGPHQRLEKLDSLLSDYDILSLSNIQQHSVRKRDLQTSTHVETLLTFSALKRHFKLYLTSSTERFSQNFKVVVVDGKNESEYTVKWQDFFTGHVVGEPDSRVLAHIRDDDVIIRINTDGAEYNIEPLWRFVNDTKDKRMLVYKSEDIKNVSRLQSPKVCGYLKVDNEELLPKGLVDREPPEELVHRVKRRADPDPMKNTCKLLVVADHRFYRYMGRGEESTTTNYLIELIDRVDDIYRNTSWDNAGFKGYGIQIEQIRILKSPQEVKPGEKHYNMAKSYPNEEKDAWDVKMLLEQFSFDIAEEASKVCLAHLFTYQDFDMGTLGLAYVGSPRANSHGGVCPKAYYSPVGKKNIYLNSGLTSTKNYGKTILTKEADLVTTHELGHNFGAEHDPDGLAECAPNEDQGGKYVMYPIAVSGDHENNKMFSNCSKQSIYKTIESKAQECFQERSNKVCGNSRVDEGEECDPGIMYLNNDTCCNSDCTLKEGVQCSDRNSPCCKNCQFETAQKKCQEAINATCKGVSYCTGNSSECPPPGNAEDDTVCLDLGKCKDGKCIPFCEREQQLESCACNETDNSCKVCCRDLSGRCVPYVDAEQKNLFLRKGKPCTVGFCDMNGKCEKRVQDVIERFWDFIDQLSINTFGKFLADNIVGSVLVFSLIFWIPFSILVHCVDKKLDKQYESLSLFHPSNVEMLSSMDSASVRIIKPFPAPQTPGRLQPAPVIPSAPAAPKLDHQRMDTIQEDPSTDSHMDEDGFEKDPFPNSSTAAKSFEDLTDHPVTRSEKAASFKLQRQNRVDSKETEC

Row | Compound | pIC50 (Collagenase 3) | pIC50 [1] | pIC50 [2] | pIC50 (Interstitial collagenase) | further results
1 | CC#CCOc1ccc(S(=O)(=O)N2Cc3ccccc3N(C(C)=O)CC2C(=O)NO)cc1 (stereo unspecified) |  |  |  |  | inhibition at 3 µM (THP-1): 60%
2 | COc1ccc(S(=O)(=O)N2Cc3ccccc3N(C(=O)c3cc(F)ccc3C)CC2C(=O)NO)cc1 (stereo unspecified) | 8.70 | 8.40 |  |  | 
3 | CC#CCOc1ccc(S(=O)(=O)N2Cc3ccccc3N(C(=O)C3CC3)CC2C(=O)NO)cc1 (stereo unspecified) | 7.54 | 7.48 | 8.00 | 6.08 | inhibition at 3 µM (THP-1): 59%
4 | CC#CCOc1ccc(S(=O)(=O)N2Cc3ccccc3N(C(=O)c3ccccc3)CC2C(=O)NO)cc1 (stereo unspecified) | 8.02 |  |  |  | inhibition at 3 µM (THP-1): 25%
5 | COc1ccc(S(=O)(=O)N2Cc3ccccc3N(C(C)=O)CC2C(=O)NO)cc1 (stereo unspecified) |  |  |  | 7.74 | Activity (Rattus norvegicus [5]): 0.9; Activity (Rattus norvegicus [4]): 1.7
6 | COc1ccc(S(=O)(=O)N(Cc2cccnc2)[C@@H](C(=O)NO)C(C)C)cc1.Cl [CGS-27023A] |  |  |  |  | Activity (Bos taurus [3]): 1; Activity (Rattus norvegicus [6]): 1; Inhibition (Bos taurus [7]): 63%
7 | COCC(=O)N1CC(C(=O)NO)N(S(=O)(=O)c2ccc(Oc3ccncc3)cc2)Cc2ccccc21 (stereo unspecified) | 8.70 | 8.70 | 6.80 | 6.12 | Activity (Rattus norvegicus [5]): 0.32
8 | COCC(=O)N1CC(C(=O)NO)N(S(=O)(=O)c2ccc(Oc3ccc(Cl)cc3)cc2)Cc2ccccc21 (stereo unspecified) |  |  | 6.80 | 7.21 | IA (Rattus norvegicus [8]): inactive
9 | O=C(NO)C1CN(C(=O)c2ccccc2)c2ccccc2CN1S(=O)(=O)c1ccc(Oc2ccc(Cl)cc2)cc1 (stereo unspecified) |  |  | 6.28 | 7.23 | 
10 | O=C(NO)C1CN(C(=O)c2cccs2)c2ccccc2CN1S(=O)(=O)c1ccc(Oc2ccc(Cl)cc2)cc1 (stereo unspecified) | 8.40 | 8.70 | 6.60 | 7.46 | 
11 | COc1ccc(S(=O)(=O)N2Cc3ccccc3N(C(=O)CCc3ccccc3)CC2C(=O)NO)cc1 (stereo unspecified) |  |  |  |  | Activity (Rattus norvegicus [4]): 0.22
12 | CCOc1ccc(C(=O)N2CC(C(=O)NO)N(S(=O)(=O)c3ccc(OC)cc3)Cc3ccccc32)cc1 (stereo unspecified) | 8.70 | 8.70 |  | 7.62 | 
13 | COc1ccc(S(=O)(=O)N2Cc3ccccc3N(C(=O)C3CC3)CC2C(=O)NO)cc1 (stereo unspecified) |  |  |  |  | Activity (Rattus norvegicus [5]): 0.49; Activity (Rattus norvegicus [9]): 0.8

Second part, led by results:

Row | pIC50 (Collagenase 3) | pIC50 [1] | Compound | pIC50 [2] | pIC50 (Interstitial collagenase) | further results
14 | 9.00 |  | COc1ccc(S(=O)(=O)N2Cc3ccccc3N(C(=O)c3cccs3)CC2C(=O)NO)cc1 (stereo unspecified) |  | 7.70 | Activity (Bos taurus [3]): 1.2; Activity (Rattus norvegicus [4]): 1.1
15 |  | 8.10 | COc1ccc(S(=O)(=O)N2Cc3ccccc3N(S(C)(=O)=O)CC2C(=O)NO)cc1 (stereo unspecified) |  |  | 
16 | 8.70 | 8.70 | COCC(=O)N1CC(C(=O)NO)N(S(=O)(=O)c2ccc(OC)cc2)Cc2ccccc21 (stereo unspecified) |  |  | Activity (Bos taurus [3]): 2.5; Activity (Rattus norvegicus [5]): 1
17 | 7.46 | 7.02 | CC#CCOc1ccc(S(=O)(=O)N2Cc3ccccc3N(S(C)(=O)=O)CC2C(=O)NO)cc1 (stereo unspecified) | 7.70 | 6.59 | inhibition at 3 µM (THP-1): 44%
18 |  | 7.89 | COc1ccc(S(=O)(=O)N2Cc3ccccc3N(C(=O)C3CCCCC3)CC2C(=O)NO)cc1 (stereo unspecified) |  |  | Activity (Rattus norvegicus [5]): 0.47
19 |  | 9.22 | COc1ccc(S(=O)(=O)N2Cc3ccccc3N(C(=O)c3ccccc3)CC2C(=O)NO)cc1 (stereo unspecified) |  |  | Activity (Bos taurus [3]): 0.73; Inhibition (Bos taurus [7]): 46.3%; Activity (Rattus norvegicus [4]): 1.2
